Test results as given in ChEMBL document CHEMBL1138742, “Potent and orally bioavailable non-peptide antagonists at the human bradykinin B(1) receptor based on a 2-alkylamino-5-sulfamoylbenzamide core” (J Med Chem, 2004).

Target: T1, B1 bradykinin receptor (Homo sapiens, UniProt P46663)
T1 sequence (P46663 whole entry): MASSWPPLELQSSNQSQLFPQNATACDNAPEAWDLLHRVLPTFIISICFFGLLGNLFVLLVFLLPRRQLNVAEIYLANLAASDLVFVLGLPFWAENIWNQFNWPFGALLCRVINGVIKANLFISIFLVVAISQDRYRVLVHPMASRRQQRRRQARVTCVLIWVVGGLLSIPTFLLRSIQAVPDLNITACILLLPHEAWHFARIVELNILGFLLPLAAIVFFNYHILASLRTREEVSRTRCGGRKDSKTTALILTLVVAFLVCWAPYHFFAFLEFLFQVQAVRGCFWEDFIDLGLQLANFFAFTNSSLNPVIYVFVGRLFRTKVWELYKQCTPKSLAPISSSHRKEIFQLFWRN
Assay: Binding affinity for Bradykinin receptor B1 expressed in HEK293 cells
Format: cell-based

Compound | Ki
CN(C)CCCN(CCCN(C)C)C(=O)CCNS(=O)(=O)c1ccc(NCC(c2ccccc2)c2ccccc2)c(Cl)c1 | > 1000 nM
CN(C)CCCN(CCCN(C)C)C(=O)CCNS(=O)(=O)c1ccc(NCC(c2ccccc2)c2ccccc2)c([N+](=O)[O-])c1 | 140 nM
CN(C)CCCN(CCCN(C)C)S(=O)(=O)c1ccc(NCC(c2ccccc2)c2ccccc2)c([N+](=O)[O-])c1 | 230 nM
CC(C)N1CCN(C(=O)C2CCN(S(=O)(=O)c3ccc(NCC(c4ccccc4)c4ccccc4)c(C(=O)N4CCOCC4)c3)CC2)CC1 | 10 nM
CN(C)CCCN(CCCN(C)C)C(=O)C1CCN(S(=O)(=O)c2ccc(NCC(c3ccccc3)c3ccccc3)c(C(=O)N3CCOCC3)c2)CC1 | 1 nM
CN(C)CCCN(CCCN(C)C)S(=O)(=O)c1ccc(NC(c2ccccc2)c2ccccc2)c([N+](=O)[O-])c1 | 3000 nM
CN(C)CCCN(CCCN(C)C)C(=O)CCNS(=O)(=O)c1ccc(NCC(c2ccccc2)c2ccccc2)c(C(=O)N2CCOCC2)c1 | 10 nM
CN1CCN(C(=O)C2CCN(S(=O)(=O)c3ccc(NCC(c4ccccc4)c4ccccc4)c(C(=O)N4CCOCC4)c3)CC2)CC1 | 10 nM
CC(=O)c1cc(S(=O)(=O)NCCC(=O)N(CCCN(C)C)CCCN(C)C)ccc1NCC(c1ccccc1)c1ccccc1 | 130 nM
CN(C)CCCN(CCCN(C)C)C(=O)C1CCN(S(=O)(=O)c2ccc(NCC(c3ccccc3)c3ccccc3)c([N+](=O)[O-])c2)CC1 | 10 nM
CN(C)CCCN(CCCN(C)C)S(=O)(=O)c1ccc(NC(Cc2ccccc2)Cc2ccccc2)c([N+](=O)[O-])c1 | 250 nM

Target: T1, B1 bradykinin receptor
Assay: Inhibition of Bradykinin receptor B1 expressed in HEK293 cells
Format: cell-based

Compound | IC50
CN(C)CCCN(CCCN(C)C)S(=O)(=O)c1ccc(NC(c2ccccc2)c2ccccc2)c([N+](=O)[O-])c1 | 6200 nM

Target: T2, B2 bradykinin receptor (Homo sapiens, UniProt P30411)
T2 sequence (P30411 whole entry): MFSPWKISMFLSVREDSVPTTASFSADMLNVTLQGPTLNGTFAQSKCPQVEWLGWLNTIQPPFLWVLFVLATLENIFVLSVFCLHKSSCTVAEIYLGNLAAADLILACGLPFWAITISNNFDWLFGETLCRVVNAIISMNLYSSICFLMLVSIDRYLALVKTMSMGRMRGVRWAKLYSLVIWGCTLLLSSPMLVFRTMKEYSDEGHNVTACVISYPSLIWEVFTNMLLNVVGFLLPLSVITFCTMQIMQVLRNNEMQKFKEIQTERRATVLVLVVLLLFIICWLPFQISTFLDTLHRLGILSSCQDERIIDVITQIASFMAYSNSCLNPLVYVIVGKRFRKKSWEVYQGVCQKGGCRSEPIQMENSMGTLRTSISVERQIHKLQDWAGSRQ
Assay: Binding affinity for Bradykinin receptor B2 expressed in COS7 cells
Format: cell-based, COS-7

Compound | Ki
CN(C)CCCN(CCCN(C)C)S(=O)(=O)c1ccc(NC(c2ccccc2)c2ccccc2)c([N+](=O)[O-])c1 | 1400 nM
